PMC12787591 (Nutrients, 2025)

Target: T1, α-amylase (α-salivary amylase)
T1 construct: gene AMY1A
Experiment: enzyme inhibition assay with soluble starch and […],5-dinitrosalicylic acid
Type: biochemical, Homo sapiens

## OC[C@H]1NC[C@H](O)[C@@H](O)[C@@H]1O [DNJ, 1-Deoxynojirimycin]
  α-Amylase Experiment / IC50: 22.69 µg/mL
